Results reported in patent US20140303105A1, “Primycin and components thereof for use in the treatment or prevention of infections caused by specific pathogens” (PANNONPHARMA GYÓGYSZERGYÁRTÓ ZRT., priority 2011, published 2014).
Values after ≈ are worked out from the molar mass of the structure shown.

Experiments:
[1] = test system: Enterococcus sp., decreased vancomycin susceptibility; assay: Standard microdilution susceptibility test, clinical isolates; type: cell-based; conditions: 5 clinical isolates
[2] = test system: Streptococcus pneumoniae, penicillin resistant; assay: as above; type: cell-based; conditions: for MIC50 / MIC90: Streptococcus pneumoniae; for MIC50: read-out: MIC 50%; for MIC90: read-out: MIC 90%
[3] = test system: Coagulase-negative Staphylococus sp., methicillin resistant; assay: as above; type: cell-based; conditions: 10 clinical isolates; for MIC50: read-out: MIC 50%; for MIC90: read-out: MIC 90%
[4] = test system: Coagulase-negative Staphylococus sp., methicillin susceptible; assay: as above; type: cell-based; conditions: 10 clinical isolates; for MIC50: read-out: MIC 50%; for MIC90: read-out: MIC 90%
[5] = test system: Enterococcus sp., vancomycin susceptible; assay: as above; type: cell-based; conditions: 20 clinical isolates; for MIC50 / MIC90: Enterococcus; for MIC50: read-out: MIC 50%; for MIC90: read-out: MIC 90%
[6] = test system: Staphylococcus aureus, methicillin susceptible; assay: as above; type: cell-based; conditions: 10 clinical isolates; for MIC50 / MIC90: Staphylococcus aureus; for MIC50: read-out: MIC 50%; for MIC90: read-out: MIC 90%
[7] = test system: Staphylococcus aureus, methicillin resistant; assay: as above; type: cell-based; conditions: 10 clinical isolates; for MIC50 / MIC90: Staphylococcus aureus; for MIC50: read-out: MIC 50%; for MIC90: read-out: MIC 90%
[8] = test system: Streptococcus viridans sp.; assay: as above; type: cell-based; conditions: 20 clinical isolates; for MIC50 / MIC90: Streptococcus viridans; for MIC50: read-out: MIC 50%; for MIC90: read-out: MIC 90%
[9] = test system: Streptococcus pneumoniae, penicillin susceptible; assay: as above; type: cell-based; conditions: for MIC Range / Ratio of Sensitive/Total / MIC50 / MIC90 / MIC 50% / MIC 90%: 10 clinical isolates; for MIC50 / MIC90: Streptococcus pneumoniae; for MIC50: read-out: MIC 50%; for MIC90: read-out: MIC 90%; for MIC: single isolate
[10] = test system: Streptococcus simulans 7866; conditions: cited from earlier work
Diphteroides 8264 = conditions: cited from earlier work
[11] = test system: Enterobacter cloacae B 520; conditions: cited from earlier work
[12] = test system: Staphylococcus aureus 7503; conditions: cited from earlier work
Propionibacterium acnes = conditions: cited from earlier work
Escherichia coli B 1218 = conditions: cited from earlier work
[13] = test system: Staphylococcus aureus ATCC 25923; conditions: cited from earlier work
Micrococcus spp. = conditions: cited from earlier work
[14] = test system: Serotype β Streptococcus 8252; conditions: cited from earlier work
[15] = test system: Staphylococcus saprophyticus 8454; conditions: cited from earlier work
[16] = test system: Bacillus subtilis ATCC 6633; conditions: cited from earlier work
[17] = test system: Staphylococcus epidermidis 7586; conditions: cited from earlier work
Streptococcus mitis 5728 = conditions: cited from earlier work
Staphylococcus capitis = conditions: cited from earlier work
[18] = test system: Staphylococcus hominis 7835; conditions: cited from earlier work

Compound: CC1COc2c(N3CCN(C)CC3)c(F)cc3c(=O)c(C(=O)O)cn1c23 (centres unmarked) [Ofloxacin]
- MIC Range [1]: 2 to 8 µg/mL
- Ratio of Sensitive/Total [1]: 2/5
- MIC Range ([2]; 10 clinical isolates): 1 to 2 µg/mL
- Ratio of Sensitive/Total ([2]; 10 clinical isolates): 10/10
- MIC50 ([2]; 10 clinical isolates): 1 µg/mL (≈ 2.77 µM)
- MIC90 ([2]; 10 clinical isolates): 2 µg/mL (≈ 5.53 µM)
- Ratio of Sensitive/Total [3]: 0/10
- MIC50 [3]: > 16 µg/mL
- MIC90 [3]: > 16 µg/mL
- MIC Range [4]: 0.25 to 1 µg/mL
- Ratio of Sensitive/Total [4]: 10/10
- MIC50 [4]: 1 µg/mL (≈ 2.77 µM)
- MIC90 [4]: 1 µg/mL (≈ 2.77 µM)
- Ratio of Sensitive/Total [5]: 3/20
- MIC50 [5]: 4 µg/mL (≈ 11.1 µM)
- MIC90 [5]: > 16 µg/mL
- MIC Range [6]: 0.5 to 1 µg/mL
- Ratio of Sensitive/Total [6]: 10/10
- MIC50 [6]: 0.5 µg/mL (≈ 1.38 µM)
- MIC90 [6]: 1 µg/mL (≈ 2.77 µM)
- Ratio of Sensitive/Total [7]: 1/10
- MIC50 [7]: 16 µg/mL (≈ 44.3 µM)
- MIC90 [7]: > 16 µg/mL
- MIC Range [8]: 1 to 8 µg/mL
- Ratio of Sensitive/Total [8]: 14/20
- MIC50 [8]: 2 µg/mL (≈ 5.53 µM)
- MIC90 [8]: 4 µg/mL (≈ 11.1 µM)
- MIC Range [9]: 1 to 4 µg/mL
- Ratio of Sensitive/Total [9]: 9/10
- MIC50 [9]: 2 µg/mL (≈ 5.53 µM)
- MIC90 [9]: 2 µg/mL (≈ 5.53 µM)

Compound: CN(C)[C@@H]1C(O)=C(C(N)=O)C(=O)[C@@]2(O)C(O)=C3C(=O)c4c(O)cccc4[C@@](C)(O)[C@H]3[C@H](O)[C@@H]12 [Oxytetracycline]
- MIC Range [1]: 0.25 to 16 µg/mL
- Ratio of Sensitive/Total [1]: 2/5
- Ratio of Sensitive/Total ([2]; 10 clinical isolates): 1/10
- MIC50 ([2]; 10 clinical isolates): 32 µg/mL (≈ 69.5 µM)
- MIC90 ([2]; 10 clinical isolates): > 32 µg/mL
- Ratio of Sensitive/Total [3]: 8/10
- MIC50 [3]: 1 µg/mL (≈ 2.17 µM)
- MIC90 [3]: > 32 µg/mL
- Ratio of Sensitive/Total [4]: 9/10
- MIC50 [4]: 0.25 µg/mL (≈ 0.543 µM)
- MIC90 [4]: 1 µg/mL (≈ 2.17 µM)
- Ratio of Sensitive/Total [5]: 6/20
- MIC50 [5]: 16 µg/mL (≈ 34.7 µM)
- MIC90 [5]: 32 µg/mL (≈ 69.5 µM)
- MIC Range [6]: 0.25 to 32 µg/mL
- Ratio of Sensitive/Total [6]: 8/10
- MIC50 [6]: 0.25 µg/mL (≈ 0.543 µM)
- MIC90 [6]: 32 µg/mL (≈ 69.5 µM)
- MIC Range [7]: 0.125 to 0.25 µg/mL
- Ratio of Sensitive/Total [7]: 10/10
- MIC50 [7]: 0.25 µg/mL (≈ 0.543 µM)
- MIC90 [7]: 0.25 µg/mL (≈ 0.543 µM)
- Ratio of Sensitive/Total [8]: 10/20
- MIC50 [8]: 4 µg/mL (≈ 8.69 µM)
- MIC90 [8]: > 32 µg/mL
- MIC Range [9]: 1 to 8 µg/mL
- Ratio of Sensitive/Total [9]: 8/10
- MIC50 [9]: 1 µg/mL (≈ 2.17 µM)
- MIC90 [9]: 8 µg/mL (≈ 17.4 µM)

Compound: [H]/N=C(/N)N[C@H]1[C@H](O)[C@@H](O)[C@H](O[C@@H]2O[C@@H](C)[C@](O)(C=O)[C@H]2O[C@@H]2O[C@@H](CO)[C@H](O)[C@@H](O)[C@@H]2NC)[C@@H](N/C(N)=N\[H])[C@@H]1O [Streptomycin]
- MIC [10]: 2.0 µg/mL (≈ 3.44 µM)
- MIC (Diphteroides 8264): >250 µg/mL
- MIC [11]: 7.8 µg/mL (≈ 13.4 µM)
- MIC [12]: 2.0 µg/mL (≈ 3.44 µM)
- MIC (Propionibacterium acnes): <0.5 µg/mL
- MIC (Escherichia coli B 1218): 15.6 µg/mL (≈ 26.8 µM)
- MIC [13]: 3.9 µg/mL (≈ 6.71 µM)
- MIC (Micrococcus spp.): 3.9 µg/mL (≈ 6.71 µM)
- MIC [14]: 3.9 µg/mL (≈ 6.71 µM)
- MIC [15]: 1.0 µg/mL (≈ 1.72 µM)
- MIC [16]: 1.0 µg/mL (≈ 1.72 µM)
- MIC [17]: 2.0 µg/mL (≈ 3.44 µM)
- MIC (Streptococcus mitis 5728): 250 µg/mL (≈ 430 µM)
- MIC (Staphylococcus capitis): 3.9 µg/mL (≈ 6.71 µM)
- MIC [18]: 2.0 µg/mL (≈ 3.44 µM)

Compound: NC[C@H]1O[C@H](O[C@H]2[C@H](O)[C@@H](O[C@H]3O[C@H](CO)[C@@H](O)[C@H](N)[C@H]3O)[C@H](N)C[C@@H]2N)[C@H](N)C[C@@H]1O [Tobramycin]
- Ratio of Sensitive/Total [1]: 0/5
- Ratio of Sensitive/Total ([2]; 10 clinical isolates): 0/10
- MIC50 ([2]; 10 clinical isolates): 32 µg/mL (≈ 68.4 µM)
- MIC90 ([2]; 10 clinical isolates): > 32 µg/mL
- Ratio of Sensitive/Total [3]: 5/10
- MIC50 [3]: 0.06 µg/mL (≈ 0.128 µM)
- MIC90 [3]: > 32 µg/mL
- MIC Range [4]: 0.06 to 4 µg/mL
- Ratio of Sensitive/Total [4]: 10/10
- MIC50 [4]: 0.06 µg/mL (≈ 0.128 µM)
- MIC90 [4]: 4 µg/mL (≈ 8.56 µM)
- Ratio of Sensitive/Total [5]: 0/20
- MIC50 [5]: 16 µg/mL (≈ 34.2 µM)
- MIC90 [5]: > 32 µg/mL
- MIC Range [6]: 0.5 to 1 µg/mL
- Ratio of Sensitive/Total [6]: 10/10
- MIC50 [6]: 0.5 µg/mL (≈ 1.07 µM)
- MIC90 [6]: 0.5 µg/mL (≈ 1.07 µM)
- Ratio of Sensitive/Total [7]: 6/10
- MIC50 [7]: 1 µg/mL (≈ 2.14 µM)
- MIC90 [7]: > 32 µg/mL
- MIC Range [8]: 4 to 32 µg/mL
- Ratio of Sensitive/Total [8]: 1/20
- MIC50 [8]: 16 µg/mL (≈ 34.2 µM)
- MIC90 [8]: 32 µg/mL (≈ 68.4 µM)
- MIC Range [9]: 16 to 32 µg/mL
- Ratio of Sensitive/Total [9]: 0/10
- MIC50 [9]: 16 µg/mL (≈ 34.2 µM)
- MIC90 [9]: 32 µg/mL (≈ 68.4 µM)

Compound: Gentamicin
- MIC Range [1]: 8 to 16 µg/mL
- Ratio of Sensitive/Total [1]: 0/5
- MIC 50% ([2]; 10 clinical isolates): 16 µg/mL
- MIC 90% ([2]; 10 clinical isolates): >16 µg/mL
- Ratio of Sensitive/Total ([2]; 10 clinical isolates): 0/10
- MIC 50% [3]: 0.125 µg/mL
- MIC 90% [3]: >16 µg/mL
- Ratio of Sensitive/Total [3]: 6/10
- MIC 50% [4]: 0.125 µg/mL
- MIC 90% [4]: 4 µg/mL
- MIC Range [4]: 0.03 to 8 µg/mL
- Ratio of Sensitive/Total [4]: 9/10
- MIC 50% [5]: 8 µg/mL
- MIC 90% [5]: >16 µg/mL
- Ratio of Sensitive/Total [5]: 1/20
- MIC 50% [6]: 0.5 µg/mL
- MIC 90% [6]: 0.5 µg/mL
- MIC Range [6]: 0.25 to 0.5 µg/mL
- Ratio of Sensitive/Total [6]: 10/10
- MIC 50% [7]: 0.5 µg/mL
- MIC 90% [7]: 0.5 µg/mL
- MIC Range [7]: 0.25 to 1 µg/mL
- Ratio of Sensitive/Total [7]: 10/10
- MIC 50% [8]: 8 µg/mL
- MIC 90% [8]: 16 µg/mL
- Ratio of Sensitive/Total [8]: 9/20
- MIC 50% [9]: 16 µg/mL
- MIC 90% [9]: 16 µg/mL
- MIC Range [9]: 8 to 16 µg/mL
- Ratio of Sensitive/Total [9]: 0/10

Compound: Neomycin
- Ratio of Sensitive/Total [1]: 0/5
- MIC 50% ([2]; 10 clinical isolates): >32 µg/mL
- MIC 90% ([2]; 10 clinical isolates): >32 µg/mL
- Ratio of Sensitive/Total ([2]; 10 clinical isolates): 0/10
- MIC 50% [3]: 0.25 µg/mL
- MIC 90% [3]: 16 µg/mL
- Ratio of Sensitive/Total [3]: 8/10
- MIC 50% [4]: 0.25 µg/mL
- MIC 90% [4]: 1 µg/mL
- MIC Range [4]: 0.06 to 4 µg/mL
- Ratio of Sensitive/Total [4]: 10/10
- MIC 50% [5]: >32 µg/mL
- MIC 90% [5]: >32 µg/mL
- Ratio of Sensitive/Total [5]: 0/20
- MIC 50% [6]: 1 µg/mL
- MIC 90% [6]: 2 µg/mL
- MIC Range [6]: 0.5 to 2 µg/mL
- Ratio of Sensitive/Total [6]: 10/10
- MIC 50% [7]: 1 µg/mL
- MIC 90% [7]: >32 µg/mL
- Ratio of Sensitive/Total [7]: 5/10
- MIC 50% [8]: >32 µg/mL
- MIC 90% [8]: >32 µg/mL
- Ratio of Sensitive/Total [8]: 0/20
- MIC 50% [9]: >32 µg/mL
- MIC 90% [9]: >32 µg/mL
- Ratio of Sensitive/Total [9]: 0/10

Compound: Penicillin
- MIC ([2]; single isolate, serotype 23(F)): 2 µg/mL
- MIC ([9]; serotype 3): 0.015 µg/mL
- MIC ([9]; serotype 4): 0.015 µg/mL
- MIC ([9]; serotype 7F): 0.015 µg/mL
- MIC ([9]; serotype 8): 0.015 µg/mL
- MIC ([9]; serotype 9(V)): 0.03 µg/mL
- MIC ([9]; serotype 11(A)): 0.06 µg/mL
- MIC ([9]; serotype 19F): 0.03 µg/mL
- MIC ([9]; serotype 23(F)): 0.015 µg/mL
